In DBAASP:
Values after ≈ are worked out from the molar mass of the structure shown.

Experiments:
Assay in all cases: ≥ marks a high value that may be exact or a test limit, other limits are often not marked, values filed in µg/mL are converted to µM
[1] = system: Bacillus megaterium ATCC 10778
[2] = system: Bacillus subtilis ATCC 6633
Candida albicans MDM8 = system: Candida albicans MDM8
[3] = system: Candida tropicalis IOC 4560
[4] = system: Enterobacter cloacae beta-12
Escherichia coli SBS 363 = system: Escherichia coli SBS 363
Micrococcus luteus A270 = system: Micrococcus luteus A270
[5] = system: Pseudomonas aeruginosa ATCC 27853
[6] = system: Serratia marcescens ATCC 4112
[7] = system: Staphylococcus aureus ATCC 29213
[8] = system: Acinetobacter baumannii ATCC 19606
[9] = system: Candida albicans ATCC 90028
[10] = system: Cryptococcus neoformans ATCC 208821
[11] = system: Escherichia coli ATCC 25922
[12] = system: Klebsiella pneumoniae ATCC 700603
[13] = system: Staphylococcus aureus ATCC 43300
[14] = system: Staphylococcus aureus SH1000
Escherichia coli W3110 = system: Escherichia coli W3110
[15] = system: Klebsiella pneumoniae ATCC BAA-1705
Escherichia coli K-12 = system: Escherichia coli K-12
[16] = system: Pseudomonas aeruginosa PA214
[17] = system: Pseudomonas aeruginosa PA330
[18] = system: Pseudomonas aeruginosa PAO1
[19] = system: Candida albicans ATCC 36232
[20] = system: Escherichia coli ATCC 2592
[21] = system: Micrococcus luteus ATCC 9341
[22] = system: Proteus vulgaris ATCC 6380
[23] = system: Pseudomonas aeruginosa ATCC 9027
[24] = system: Staphylococcus aureus ATCC 6538
Staphylococcus aureus = system: Staphylococcus aureus
[25] = system: Escherichia coli DH5alpha

CC(C)C[C@H](NC(=O)[C@H](C)NC(=O)CNC(=O)[C@H](CC(C)C)NC(=O)[C@@H](N)Cc1ccccc1)C(=O)N[C@@H](Cc1c[nH]c2ccccc12)C(=O)N[C@@H](CC(N)=O)C(=O)N[C@H](C(=O)N[C@@H](C)C(=O)N[C@@H](CCCCN)C(=O)N[C@@H](CCCN=C(N)N)C(=O)N[C@H](C(=O)N[C@@H](Cc1ccccc1)C(N)=O)C(C)C)C(C)C [FLGALWNVAKRVF]
MIC [1]: 0.8 µM (≈ 1.22 µg/mL)
MIC [2]: 1.6 µM (≈ 2.43 µg/mL)
MIC (Candida albicans MDM8): 3.1 µM (≈ 4.71 µg/mL)
MIC [3]: 1.6 µM (≈ 2.43 µg/mL)
MIC [4]: 6.3 µM (≈ 9.58 µg/mL)
MIC (Escherichia coli SBS 363): 1.6 µM (≈ 2.43 µg/mL)
MIC (Micrococcus luteus A270): 1.6 µM (≈ 2.43 µg/mL)
MIC [5]: 12.5 µM (≈ 19 µg/mL)
MIC [6]: 0.8 µM (≈ 1.22 µg/mL)
MIC [7]: 3.1 µM (≈ 4.71 µg/mL)

CC(C)C[C@H](NC(=O)[C@H](C)NC(=O)CNC(=O)[C@H](CC(C)C)NC(=O)[C@@H](N)Cc1ccccc1)C(=O)N[C@@H](Cc1c[nH]c2ccccc12)C(=O)N[C@@H](CC(N)=O)C(=O)N[C@H](C(=O)N[C@@H](CC(C)C)C(=O)N[C@@H](CCCCN)C(=O)N[C@@H](CO)C(=O)N[C@H](C(=O)N[C@@H](Cc1ccccc1)C(N)=O)C(C)C)C(C)C [FLGALWNVLKSVF]
MIC [1]: 3.1 µM (≈ 4.63 µg/mL)
MIC [2]: 0.8 µM (≈ 1.19 µg/mL)
MIC (Candida albicans MDM8): 3.1 µM (≈ 4.63 µg/mL)
MIC [3]: 3.1 µM (≈ 4.63 µg/mL)
MIC [4]: ≥ 50 µM
MIC (Escherichia coli SBS 363): 0.8 µM (≈ 1.19 µg/mL)
MIC (Micrococcus luteus A270): 0.4 µM (≈ 0.597 µg/mL)
MIC [5]: > 50 µM
MIC [6]: 0.4 µM (≈ 0.597 µg/mL)
MIC [7]: 0.8 µM (≈ 1.19 µg/mL)

CC(C)C[C@H](NC(=O)CN)C(=O)N[C@@H](Cc1ccccc1)C(=O)N[C@@H](CCCCN)C(=O)N[C@@H](CC(C)C)C(=O)N[C@@H](CC(C)C)C(=O)N[C@@H](CCCCN)C(=O)N[C@@H](CCCCN)C(=O)N[C@@H](CC(C)C)C(=O)N[C@@H](CC(C)C)C(=O)N[C@@H](CCCCN)C(=O)N[C@@H](CC(C)C)C(=O)N[C@@H](CC(C)C)C(=O)N[C@@H](CCCCN)C(N)=O [GLFKLLKKLLKLLK]
MIC [8]: > 20 µM
MIC [9]: 20 µM (≈ 33.1 µg/mL)
MIC [10]: 20 µM (≈ 33.1 µg/mL)
MIC [11]: > 20 µM
MIC [12]: > 20 µM
MIC [5]: > 20 µM
MIC [13]: > 20 µM
MIC [14]: ≥ 33 µM

CC[C@H](C)[C@H](N)C(=O)N[C@@H](CC(C)C)C(=O)N[C@@H](Cc1c[nH]c2ccccc12)C(=O)N[C@@H](C)C(=O)N[C@@H](CS)C(=O)N[C@@H](Cc1c[nH]c2ccccc12)C(=O)NCC(=O)N[C@@H](CC(C)C)C(=O)N[C@@H](CCCCN)C(=O)N[C@@H](CC(C)C)C(=O)N[C@@H](CC(C)C)C(=O)N[C@@H](CCCCN)C(=O)N[C@@H](Cc1ccc(O)cc1)C(=O)N[C@@H](CCCCN)C(=O)N[C@@H](CCCCN)C(=O)N[C@H](C(=O)N[C@@H](Cc1ccc(O)cc1)C(=O)O)[C@@H](C)CC [ILWACWGLKLLKYKKIY]
MIC (Escherichia coli W3110): 16 µM (≈ 34.2 µg/mL)
MIC [15]: ≥ 128 µM

C[C@H](NC(=O)[C@H](C)NC(=O)[C@H](CCCCN)NC(=O)[C@H](Cc1ccccc1)NC(=O)[C@H](C)NC(=O)[C@H](CCCCN)NC(=O)[C@H](C)NC(=O)[C@H](Cc1c[nH]c2ccccc12)NC(=O)[C@H](C)NC(=O)[C@H](CCCCN)NC(=O)[C@H](C)NC(=O)[C@H](Cc1ccccc1)NC(=O)[C@H](C)NC(=O)[C@H](CCCCN)NC(=O)[C@H](C)NC(=O)[C@H](CCCCN)NC(=O)[C@@H](N)CCCCN)C(N)=O [KKAKAFAKAWAKAFKAA]
MIC (Escherichia coli K-12): 12.5 µM (≈ 22.9 µg/mL)
MIC [16]: ≥ 50 µM
MIC [17]: ≥ 50 µM
MIC [18]: 25 µM (≈ 45.9 µg/mL)

CC(C)C[C@H](NC(=O)[C@H](C)NC(=O)[C@H](CCCCN)NC(=O)[C@H](Cc1ccccc1)NC(=O)[C@H](CC(C)C)NC(=O)[C@H](CCCCN)NC(=O)[C@H](C)NC(=O)[C@H](Cc1c[nH]c2ccccc12)NC(=O)[C@H](CC(C)C)NC(=O)[C@H](CCCCN)NC(=O)[C@H](CC(C)C)NC(=O)[C@H](Cc1ccccc1)NC(=O)[C@H](C)NC(=O)[C@H](C)NC(=O)[C@H](CCCCN)NC(=O)[C@H](CCCCN)NC(=O)[C@@H](N)CCCCN)C(N)=O [KKKAAFLKLWAKLFKAL]
MIC (Escherichia coli K-12): 3.1 µM (≈ 6.21 µg/mL)
MIC [16]: 3.1 µM (≈ 6.21 µg/mL)
MIC [17]: 6.3 µM (≈ 12.6 µg/mL)
MIC [18]: 3.1 µM (≈ 6.21 µg/mL)

CC(C)C[C@H](NC(=O)[C@H](CCCCN)NC(=O)[C@H](Cc1ccccc1)NC(=O)[C@H](CC(C)C)NC(=O)[C@H](CC(C)C)NC(=O)[C@H](CCCCN)NC(=O)[C@@H](N)CCCCN)C(=O)N[C@@H](CCCCN)C(=O)N[C@@H](Cc1ccccc1)C(=O)N[C@@H](CCCCN)C(N)=O [KKLLFKLKFK]
MIC [19]: 2.41 µM (≈ 3.12 µg/mL)
MIC [20]: 2.41 µM (≈ 3.12 µg/mL)
MIC [21]: 2.41 µM (≈ 3.12 µg/mL)
MIC [22]: ≥ 77.4 µM
MIC [23]: 1.21 µM (≈ 1.56 µg/mL)
MIC [24]: 9.67 µM (≈ 12.5 µg/mL)
MIC (Staphylococcus aureus): 38.7 µM (≈ 50 µg/mL)

CC(C)C[C@H](NC(=O)[C@H](CCCCN)NC(=O)[C@H](Cc1ccccc1)NC(=O)[C@H](CC(C)C)NC(=O)[C@@H](NC(=O)[C@H](CCCCN)NC(=O)[C@@H](N)CCCCN)C(C)C)C(=O)N[C@@H](CCCCN)C(=O)N[C@@H](Cc1ccccc1)C(=O)N[C@@H](CCCCN)C(N)=O [KKVLFKLKFK]
MIC [19]: 2.44 µM (≈ 3.12 µg/mL)
MIC [20]: 2.44 µM (≈ 3.12 µg/mL)
MIC [21]: 2.44 µM (≈ 3.12 µg/mL)
MIC [22]: ≥ 78.2 µM
MIC [23]: 1.22 µM (≈ 1.56 µg/mL)
MIC [24]: 9.78 µM (≈ 12.5 µg/mL)
MIC (Staphylococcus aureus): 19.6 µM (≈ 25 µg/mL)

CC[C@H](C)[C@H](NC(=O)[C@H](C)NC(=O)[C@H](CCCCN)NC(=O)[C@@H](NC(=O)[C@H](CC(C)C)NC(=O)[C@H](CCCCN)NC(=O)[C@H](CCCCN)NC(=O)[C@@H](NC(=O)CNC(=O)[C@H](C)NC(=O)[C@H](Cc1ccccc1)NC(=O)[C@H](Cc1ccc(O)cc1)NC(=O)[C@@H]1CCCN1C(=O)[C@H](CC(=O)O)NC(=O)[C@@H](N)Cc1c[nH]c2ccccc12)C(C)C)[C@@H](C)O)C(=O)N[C@@H](CC(C)C)C(=O)N[C@@H](C)C(=O)N[C@H](C(=O)N[C@@H](CCCN=C(N)N)C(=O)N[C@@H](C)C(N)=O)C(C)C [WDPYFAGVKKLTKAILAVRA]
MIC [25]: ≥ 50 µM
MIC [14]: ≥ 50 µM

CC[C@H](C)[C@H](NC(=O)[C@H](CCCCN)NC(=O)[C@H](CCCCN)NC(=O)[C@H](Cc1ccc(O)cc1)NC(=O)[C@H](CCCCN)NC(=O)[C@H](CC(C)C)NC(=O)[C@H](CC(C)C)NC(=O)[C@H](CCCCN)NC(=O)[C@H](CC(C)C)NC(=O)CNC(=O)[C@H](Cc1c[nH]c2ccccc12)NC(=O)[C@H](CCCCN)NC(=O)[C@H](C)NC(=O)[C@H](Cc1c[nH]c2ccccc12)NC(=O)[C@H](CCCN=C(N)N)NC(=O)[C@@H](N)Cc1c[nH]c2ccccc12)C(=O)N[C@@H](Cc1ccc(O)cc1)C(=O)O [WRWAKWGLKLLKYKKIY]
MIC (Escherichia coli W3110): 1 µM (≈ 2.28 µg/mL)
MIC [15]: 2 µM (≈ 4.56 µg/mL)
